Assay results reported in patent US10925872B2, “Methods of treating cochlear synaptopathy” (PIPELINE THERAPEUTICS, INC., priority 2016, dated 2021).

Assays:
[1] = system: Type I spiral ganglion neurons; experiment: Type I spiral ganglion neuron neurite outgrowth with GSIs; format: cell-based, CD-1 mice; settings: 24-48 h, 0.1% DMSO
Description: Mouse spiral ganglion neurons (SGN) were harvested from CD-1 mice (postnatal day 3 to 5), dissociated and cultured on collagen I in serum free media. Cells were treated for 24-48 h with test compound in 0.1% DMSO then immunostained with the neurite marker, Tuj1 and imaged. Neurite length was quantified using ImageJ software (developed by NIH and available publicly). Only Tuj1^+ cells with clear bipolar morphology characteristic of Type I SGNs were quantified. The test compounds were Compound I, Compound II, and RO4929097, as well as the Notch sparing GSI, BMS-708163; NT-3 was included as positive control. […] Moreover, BMS-708163, a Notch-sparing GSI, and Compound I, a Notch inhibiting GSI, both increased type I SGN neurite outgrowth (FIG. 6C).

inner hair cell synapses = experiment: Mouse noise-induced cochlear synaptopathy, local GSI (synapse counts, ABR wave I); format: in vivo, CBA/J mice
Description: Two separate experiments were conducted using this protocol: in Experiment 1 (FIG. 7A) compound I treatment was compared to NT3, in Experiment 2 (FIG. 7B, 7C and FIG. 8) we evaluated two dose levels of compound I. For both experiments female CBA/J mice 6 weeks old (The Jackson Laboratory, Bar Harbor, Me.) were exposed, awake and unrestrained, to filtered octave band noise (8-16 kHz) for 2 hours at 98 dB SPL in a reverberant sound-exposure box. Mice were placed in a custom designed wire cage sitting atop high density 4-inch foam with the wire floor 1-inch above the foam. The noise waveform was generated and filtered with a TDT RZ6 pre-amplifier (Tucker Davis Technologies, Alachua, Fla.), amplified by a Crown XLS1000 power amplifier, and delivered by JBL 2426H Compression Driver coupled to a JBL 2730A horn. Sound levels were verified in the center of the cage using a ¼-inch condenser microphone (PCB Piezotronics, Depew, N.Y.) before each exposure. ABR was collected 1 and 14 days post-noise exposure to ensure a temporary threshold shift with no permanent threshold shift. Seventeen days after noise, mice were dosed bilaterally with crystalline Compound I, (2% in PF10*) or NT3 (2 μL of 150 ng/μL) (Experiment 1); crystalline Compound I (2% and 0.2% in PF10) (Experiment 2); and ABR was collected 14 days post-dose. Vehicle control animals received bilateral injections of PF10. Age matched naïve control animals were also used.
ABR Wave I analysis: The auditory brain-stem response (ABR) waveform comprises a set of waves (labeled I-V). Mice were anesthetized with ketamine and xylazine. ABR waveforms were collected using Tucker-Davis Technologies RZ6 Auditory Processor. The stimuli used were 5 ms tone (2 ms cos 2 rise-fall) at frequencies from 4, 8, 16, 24, and 32 kHz delivered in alternating polarity at 21/s. […] Wave I peak amplitudes were determined by extracting the raw waveform voltage averages and determining the window or latency at which the peak of wave I appears. […]

DCC α-fragment [2] = experiment: DCC α-fragment Western blot, mouse ex vivo embryonic spinal cord; format: cell-based, CD-1 mice; settings: embryonic day 15 spinal cord segments, 1 μM, 24 h, normalized to actin
Source text: (§1) Previous reports have shown that DCC (deleted in colorectal cancer) is a γ-secretase substrate. DCC is the receptor for the guidance molecule, netrin, and its activation results in neuronal axon outgrowth, axon turning and synapse formation. Embryonic spinal cords of presenilin knockout mice treated display persistent expression of the DCC α-fragment; these fragments can enhance netrin-DCC mediated events, including axon outgrowth in cultured motor neurons (Taniguchi et al., 2003, J. Biol. Chem., 278:30425-30428, and Bai et al., 2011, Cell, 144(1): 106-18). The following studies were performed using GSM, “RO”, as well as the GSI, Compound I. RO has the structure:
Spinal cords from embryonic day 15 CD-1 mice were collected and cut into 1-2 mm segments and transferred to serum-free growth media (DMEM-F12, N2 and B27 serum supplements, penicillin/streptomycin) with 1 μM RO or 1 μM Compound I. Segments were cultured for 24 h (37° C., 5% CO2) then processed for Western blot. Membranes were probed with a DCC antibody recognizing the intracellular domain and bands were normalized to actin.

DCC α-fragment [3] = experiment: DCC α-fragment Western blot, mouse ex vivo cochlea (spiral ganglion); format: cell-based, CD-1 mice; settings: postnatal day 21 cochlea, 1 μM, 24 h, normalized to actin
Source text: as §1
Cochleae were obtained from postnatal day 21 CD-1 mice. An opening was made in the bone at the cochlear apex to allow for fluid flow. Cochlea were incubated in serum-free growth media (DMEM-F12, N2 and B27 serum supplements, penicillin/streptomycin) with 1 μM RO or 1 μM Compound I. After 24 h, spiral ganglion were isolated and processed for Western blot. Membranes were probed with a DCC antibody recognizing the intracellular domain and bands were normalized to actin.

[4] = both 0.2% and 2% dosages in PF10, bilateral, 17 days after noise, 14 days post-dose

## C[C@H](OC(=O)NCC(F)(F)C(F)(F)F)C(=O)N[C@@H]1C(=O)Nc2ccccc2-c2ccccc21 [Compound I, (2,2,3,3,3-pentafluoropropyl)-carbamic acid (S)-1-((S)-6-oxo-6,7-dihydro-5H-dibenzo[b,d]azepin-7-ylcarbamoyl) ethyl ester]
[1]
  lengths of Type I SGN neurites: significant increase
Inner hair cell synapses; [4]
  synapse recovery in the mid 1 region (16-24 kHz): nearly complete synapse recovery
  synapse recovery in the mid 2 region (24-32 kHz): nearly complete synapse recovery
Inner hair cell synapses; local administration following noise induced synaptopathy
  ABR wave I amplitudes: improved wave I amplitudes
DCC α-fragment [2]
  DCC α-fragment level compared to the vehicle group: Increase in α-fragment
DCC α-fragment [3]
  DCC α-fragment level compared to the vehicle group: Increase in α-fragment
